In paper PMC12423301, “Astrocytic monoamine oxidase B (MAOB)–gamma-aminobutyric acid (GABA) axis as a molecular brake on repair following spinal cord injury” (Signal Transduction and Targeted Therapy, 2025):

Key:
[1] = Phase 1 clinical trial: treatment-emergent adverse events; type: in vivo, human
Description: Eligibility criteria included healthy adults (aged 19–45) for the SAD and MAD cohorts, and healthy elderly subjects (aged 65–85) for cohort 11. The participants were excluded if they met the following criteria: serum AST or ALT greater than 60 IU/L, total bilirubin greater than 1.8 mg/dL, creatinine phosphokinase (CPK) levels greater than 405 IU/L, creatinine clearance calculated by the Chronic Kidney Disease Epidemiology Collaboration (CKD-EPI) equation less than 60 mL/min/1.73 m². At the time of randomization, all subjects were required to be free from any clinically significant medical conditions. The study was approved by the Seoul National University Hospital institutional review board and conducted in accordance with the Declaration of Helsinki and Good Clinical Practice guidelines.
Subjects who met the eligibility criteria were admitted to the Seoul National University Hospital Clinical Trial Center one day prior to the first dose administration. […] After administration of the last dose, subjects were discharged 72 h later and visited the outpatient clinic for follow-up on three consecutive days. Pharmacokinetics and safety were monitored until the end of the study, lasting up to 18 days after the last dose.
The primary endpoint was the incidence of TEAEs by dose group. […] Those deemed to have a causal relationship with the drug were classified as ADRs. Dose escalation proceeded under blinded conditions, contingent on the absence of dose-limiting toxicity, as reviewed by a safety review committee.

hERG = hERG (Homo sapiens, UniProt Q12809); experiment: hERG assay; type: biochemical
Description: Protocol No. NB_KDS_ADP1_21 Confidential administration of the test substance to rats at a dose of 50-200 mg/kg daily for 2 weeks, there were no deaths.
As a result of oral administration to rats at doses of 30, 50, 75 and 100 mg/kg once daily for 4 weeks, […]
testis, epididymis and lungs. Renal epithelial hyperplasia and inflammatory cells infiltration in the renal pelvis observed in the male and female dose groups of 75 mg/kg or more, germ cell degeneration/loss and seminiferous tubules atrophy observed in the male dose groups of 75 mg/kg or more, and vacuole/degeneration of outer medullary tubules and basophilic tubules observed in the female dose groups were judged to be adverse effects due to administration of the test substance. […] Accordingly, in repeated administrations of rats for 4 weeks, the NOAEL(No Observed Adverse Effect Level) was determined to be 50 mg/kg/day for males and 30 mg/kg for females. […]
In a pharmacokinetic study, plasma PK parameters were measured after a single oral administration of […]
a result of measuring excretion into urine, feces, expiration, and bile, 6.9% was excreted in urine and 48.5% in feces, respectively, up to 168 hours after administration. Excretion to air through respiration was about 0.0% until 48 hours after administration, and 44.1% of the administered radioactivity concentration was present in the body (carcass). […]

in vivo = conditions: both, cynomolgus monkey, po
[2] = MAD, healthy elderly, Cohort 11, 120 mg, n = 6
[3] = MAD, young healthy adults, Cohort 7, 60 mg, n = 6
[4] = MAD, young healthy adults, Cohort 8, 120 mg, n = 6
[5] = MAD, young healthy adults, Cohort 9, 240 mg, n = 6
[6] = MAD, young healthy adults, Cohort 10, 480 mg, n = 6
[7] = SAD, young healthy adults, Cohort 1, 30 mg, n = 6
[8] = SAD, young healthy adults, Cohort 2, 60 mg, n = 6
[9] = SAD, young healthy adults, Cohort 3, 120 mg, fasting, n = 6
[10] = SAD, young healthy adults, Cohort 3, 120 mg, fed, n = 5
[11] = SAD, young healthy adults, Cohort 4, 240 mg, n = 6
[12] = SAD, young healthy adults, Cohort 5, 480 mg, n = 6
[13] = SAD, young healthy adults, Cohort 6, 960 mg, n = 6

hERG, sequence (Q12809 whole entry): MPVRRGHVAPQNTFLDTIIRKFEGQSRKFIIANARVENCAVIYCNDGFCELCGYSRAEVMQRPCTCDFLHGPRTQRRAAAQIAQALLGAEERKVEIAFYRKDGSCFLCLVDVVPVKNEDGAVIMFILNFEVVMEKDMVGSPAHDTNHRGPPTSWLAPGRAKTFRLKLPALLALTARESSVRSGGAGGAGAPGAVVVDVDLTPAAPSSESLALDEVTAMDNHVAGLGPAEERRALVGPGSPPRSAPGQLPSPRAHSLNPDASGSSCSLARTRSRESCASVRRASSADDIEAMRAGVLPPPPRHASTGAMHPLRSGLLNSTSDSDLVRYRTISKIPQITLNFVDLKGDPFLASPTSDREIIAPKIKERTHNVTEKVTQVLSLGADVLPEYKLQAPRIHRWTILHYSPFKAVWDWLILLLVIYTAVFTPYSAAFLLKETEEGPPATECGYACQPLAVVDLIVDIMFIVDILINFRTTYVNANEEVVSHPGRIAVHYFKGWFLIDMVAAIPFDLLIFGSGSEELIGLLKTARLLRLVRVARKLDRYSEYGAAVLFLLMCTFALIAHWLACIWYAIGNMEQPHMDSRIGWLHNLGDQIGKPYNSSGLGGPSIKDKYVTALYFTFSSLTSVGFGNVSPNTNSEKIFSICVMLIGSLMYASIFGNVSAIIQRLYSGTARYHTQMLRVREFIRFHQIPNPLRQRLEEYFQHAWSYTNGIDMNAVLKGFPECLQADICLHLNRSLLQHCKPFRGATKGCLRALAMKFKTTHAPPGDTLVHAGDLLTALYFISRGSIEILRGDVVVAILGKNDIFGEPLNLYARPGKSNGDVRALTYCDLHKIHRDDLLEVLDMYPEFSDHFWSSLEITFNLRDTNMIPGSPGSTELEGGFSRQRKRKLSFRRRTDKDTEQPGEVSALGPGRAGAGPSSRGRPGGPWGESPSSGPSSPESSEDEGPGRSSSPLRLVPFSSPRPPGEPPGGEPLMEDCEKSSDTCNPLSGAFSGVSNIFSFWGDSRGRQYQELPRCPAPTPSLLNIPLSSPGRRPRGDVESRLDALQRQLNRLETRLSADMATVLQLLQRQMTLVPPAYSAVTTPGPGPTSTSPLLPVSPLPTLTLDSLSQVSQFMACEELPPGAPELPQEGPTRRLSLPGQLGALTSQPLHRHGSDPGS

Structure (SMILES): CS(=O)(=O)O.C[C@H](NCc1ccc(-c2ccc(C(F)(F)F)cc2)cc1)C(N)=O [KDS2010, (S)-2-(((4’-Trifluoromethylbiphenyl-4-yl)methyl)amino)propanamide methane-sulfonate]
- effect of a high-fat meal on the frequency of TEAEs ([1]; 120 mg): did not affect
- TEAE: Abdominal discomfort [1, 2]: 2 (33.3) number of subjects (%)
- TEAE: Constipation [1, 2]: 2 (33.3) number of subjects (%)
- TEAE: Diarrhea [1, 2]: 2 (33.3) number of subjects (%)
- TEAE: Dizziness [1, 2]: 1 (16.7) number of subjects (%)
- TEAE: Hematocrit decreased [1, 2]: 2 (33.3) number of subjects (%)
- TEAE: Red blood cell count decreased [1, 2]: 1 (16.7) number of subjects (%)
- TEAEs: Any [1, 2]: 5 (83.3) number of subjects (%)
- TEAEs: Serious [1, 2]: 0 number of subjects (%)
- TEAE: Cough [1, 3]: 1 (16.7) number of subjects (%)
- TEAE: Rhinorrhoea [1, 3]: 1 (16.7) number of subjects (%)
- TEAEs: Any [1, 3]: 2 (33.3) number of subjects (%)
- TEAEs: Serious [1, 3]: 0 number of subjects (%)
- TEAEs: Any [1, 4]: 0 number of subjects (%)
- TEAEs: Serious [1, 4]: 0 number of subjects (%)
- TEAE: Hypersomnia [1, 5]: 1 (16.7) number of subjects (%)
- TEAEs: Any [1, 5]: 1 (16.7) number of subjects (%)
- TEAEs: Serious [1, 5]: 0 number of subjects (%)
- TEAE: Conjunctival hyperemia [1, 6]: 1 (16.7) number of subjects (%)
- TEAE: Oropharyngeal pain [1, 6]: 1 (16.7) number of subjects (%)
- TEAEs: Any [1, 6]: 2 (33.3) number of subjects (%)
- TEAEs: Serious [1, 6]: 0 number of subjects (%)
- TEAEs: Any [1, 7]: 2 (33.3) number of subjects (%)
- TEAEs: Serious [1, 7]: 0 number of subjects (%)
- TEAE: Cough [1, 8]: 1 (16.7) number of subjects (%)
- TEAE: Oropharyngeal pain [1, 8]: 1 (16.7) number of subjects (%)
- TEAEs: Any [1, 8]: 1 (16.7) number of subjects (%)
- TEAEs: Serious [1, 8]: 0 number of subjects (%)
- TEAE: Neutrophil count increased [1, 9]: 1 (16.7) number of subjects (%)
- TEAEs: Any [1, 9]: 3 (50.0) number of subjects (%)
- TEAEs: Serious [1, 9]: 0 number of subjects (%)
- TEAE: Neutrophil count increased [1, 10]: 2 (40.0) number of subjects (%)
- TEAEs: Any [1, 10]: 3 (60.0) number of subjects (%)
- TEAEs: Serious [1, 10]: 0 number of subjects (%)
- TEAE: Dry eye [1, 11]: 1 (16.7) number of subjects (%)
- TEAE: Neutrophil count increased [1, 11]: 1 (16.7) number of subjects (%)
- TEAE: Ocular discomfort [1, 11]: 1 (16.7) number of subjects (%)
- TEAE: Swelling of the eyelid [1, 11]: 1 (16.7) number of subjects (%)
- TEAE: White blood cell count increased [1, 11]: 1 (16.7) number of subjects (%)
- TEAEs: Any [1, 11]: 2 (33.3) number of subjects (%)
- TEAEs: Serious [1, 11]: 0 number of subjects (%)
- TEAE: Nasal congestion [1, 12]: 1 (16.7) number of subjects (%)
- TEAE: Rhinorrhoea [1, 12]: 1 (16.7) number of subjects (%)
- TEAEs: Any [1, 12]: 2 (33.3) number of subjects (%)
- TEAEs: Serious [1, 12]: 0 number of subjects (%)
- TEAE: Conjunctival hyperemia [1, 13]: 1 (16.7) number of subjects (%)
- TEAE: Dizziness [1, 13]: 1 (16.7) number of subjects (%)
- TEAE: Dry eye [1, 13]: 1 (16.7) number of subjects (%)
- TEAE: Nasal congestion [1, 13]: 2 (33.3) number of subjects (%)
- TEAE: Rhinorrhoea [1, 13]: 1 (16.7) number of subjects (%)
- TEAE: Somnolence [1, 13]: 2 (33.3) number of subjects (%)
- TEAEs: Any [1, 13]: 4 (66.7) number of subjects (%)
- TEAEs: Serious [1, 13]: 0 number of subjects (%)
- number of TEAEs ([1]; all subjects on KDS2010): 56 TEAEs
- number of subjects with TEAEs ([1]; all subjects on KDS2010): 25 subjects
- proportion of subjects with TEAEs ([1]; all subjects on KDS2010): 37.9%
- autonomic nervous system TEAEs ([1]; higher doses (240–960 mg)): TEAEs related to the autonomic nervous system were observed
- incidence of TEAEs vs dose ([1]; phase 1): tended to increase with dose
- serious adverse events ([1]; phase 1, all cohorts): no serious adverse events
- IC50 (hERG): 7.8 ± 1.7 µM
- NOAEL at 4 weeks (in vivo): 40 mg/kg
